US20190328721A1, “METHOD OF ACTIVATING DENDRITIC CELLS” (KOREA INSTITUTE OF SCIENCE AND TECHNOLOGY, priority 2018, published 2019)

Experiments:
CT26.CL25 cells [1] = assay: Annexin V flow cytometry for direct death of cancer cells; type: cell-based, mouse; settings: 30 μM, 24 hours
Description: (§1) Specifically, the present inventors treated CT26.CL25 cells and B16F10-Ova cells with 30 μM of the ROCK inhibitor Y27632 for 24 hours, and performed flow cytometry analysis using FITC-anti-Annexin V antibodies (Abcam, USA). On the other hand, cells were treated with 10 μg of TRAIL, 0.25 μM of doxorubicin, 2.5 μM of doxorubicin, or 25 μM of doxorubicin, respectively, for 4 hours, as positive controls.

B16F10-Ova cells [2] = assay: as above; type: cell-based, mouse; settings: 30 μM, 24 hours
Description: as §1

B16F10-Ova cells [3] = assay: B16F10-Ova tumor model; type: in vivo, C57L/B6 wild-type mice; settings: 10 mg/kg intravenous
Description: CT26.CL25 cancer cells (1×10^6) expressing β-galactosidase were subcutaneously injected into the left back of a Balb/c wild type mice to generate a tumor model Similarly, an […] tumor model was prepared by subcutaneously injecting melanoma cell line B16F10-Ova cells (5×10^5) into the left back of C57L/B6 wild-type mice to induce cancer.
In the case of the CT26.CL25 cancer cell line, 6 days after the injection of the cancer cells, and in the case of B 16F10-Ova, 9 days after the injection of the cancer cells, Y27632 was administered by intravenous injection at a dose of 10 mg/kg as indicated in FIG. 8a. In the case of the CT26.CL25 model, the mice were sacrificed on the 22nd day after the injection of the cancer cells and in the case of the B16F10-Ova cancer model, the mice were sacrificed on the 20th day after the injection of the cancer cells (FIG. 8A). As a negative control, phosphate-buffered saline was administered instead of Y27632.
The tumor tissues of the mice were excised, an ex vivo image was taken and the tumor tissue were weighed (FIG. 8B). In addition, before the mice were sacrificed, changes in body weights were measured at intervals of 3 days from the 6th day of the cancer cell injection in the CT26.CL25 cancer model and at intervals of 3 days from the 9th day in the B16F10-Ova cancer model (FIG. 8c). Length (L) and width (W) of the tumor tissues were measured, and the volume of the tumor tissues over time was calculated using the following formula (FIGS. 8D and 8E):
The volume of tumor tissue (V[mm^3])=(L[mm])[…] (W[mm])^2×0.5.

OT-1 T cells = assay: Proliferation of injected CFSE-stained OT-1 T cells in B16F10-Ova-bearing mice; type: in vivo; settings: 3 days after injection
Description: Specifically, Y27632 was administered to the B16F10-Ova-bearing cancer model mice according to the administration schedule described in Example 2-1, and OT-1 T cells stained with CFSE (carboxyfluorescein succinimidyl ester, Thermo Fisher Scientific, Inc., USA) were injected into the cancer model mice and the degree of proliferation of T cells was confirmed 3 days later (FIG. 14A).

CT26.CL25 cells [4] = assay: Anti-cancer immune memory (tumor removal and re-injection); type: in vivo, Balb/c wild-type mice; settings: 10 mg/kg intravenous; compared with PBS control
Description: To confirm whether the ROCK inhibitor induces anti-cancer immune memory, CT26.CL25 cells (1×10^6 cells) were injected into the right flank of Balb/c wild-type mice to induce cancer, and then 10 mg/kg of Y27632 was administered continuously for two consecutive days via intravenous injection, followed by a day of rest as a cycle, followed by 3 cycles of 3-day intervals. After 22nd days from the day of cancer injection, the induced tumor was removed by surgery. One week later, the same cancer cells (7×10^6 cells) were injected to the other flank and the growth of tumor was investigated (FIG. 12A).

[5] = test system: CT26.CL25 cancer cell line; assay: CT26.CL25 tumor model with depletion of immune cells; type: in vivo, mice; settings: 10 mg/kg intravenous
Description: Specifically, tumor model mice were prepared by subcutaneously injecting 1×10^6 cells of CT26.CL25 cancer cell line expressing β-galactosidase into wild type mice by subcutaneous injection into the left side or the like.
For the depletion of phagocytic cells in the tumor model mice, 200 μl of control liposome (FormuMax Scientific, Inc., USA) or 200 μl of clodronate liposome (FormuMax Scientific, Inc., USA) were injected intraperitoneally 5 days after cancer cell injection, and then 100 μl of the liposomes were intraperitoneally injected at intervals of 4 days until the end of the experiment Similarly, for the depletion of CD8 T cells or CD4 T cells, 200 μg of anti-CD8a antibodies (clone 2.43, bioXcell) or anti-CD4 antibodies (Clone GK 1.5, bioXcell, USA) were intraperitoneally injected (FIGS. 10A and 10B) to the tumor model mice. As a negative control, only the carrier (PBS) or the rat-derived nonspecific antibodies (rIgG, Clone LTF-2, bioXcell, USA) was administered to the tumor model mice.
From the 6th day after the injection of the cancer cells, Y27632 was administered at a dose of 10 mg/kg continuously for two consecutive days via intravenous injection, followed by a day of rest as a cycle, followed by 3 cycles of 3-day intervals. Mice were sacrificed 22 days after the injection of cancer cells, the tumor tissues were excised, and ex vivo images were taken, and the tumor tissues were weighed. Before the sacrifice of the mice, the volume of the tumor over time was calculated as described above (FIGS. 10E and 10F). […] Thus, we confirmed that the therapeutic effect of ROCK inhibitors appears to require CD8 T cells. […] As a control, a rat-derived nonspecific antibody (rIgG, BioXcell, USA) was used.

## C[C@@H](N)[C@H]1CC[C@H](C(=O)Nc2ccncc2)CC1 [Y27632]
CT26.CL25 cells [1]
  death of cancer cells (Annexin V): not to increase the death of cancer cells
B16F10-Ova cells [2]
  death of cancer cells (Annexin V): not to increase the death of cancer cells
B16F10-Ova cells [3]
  body weight of the mice: no significant change
  volume of the tumors: significantly decreased
B16F10-Ova cells [3]; day 20
  weight of the tumors: significantly decreased
OT-1 T cells
  proliferation of OT-1 T cells: significantly increased
CT26.CL25 cells [4]
  proportion of tumor-free mice after re-injection of cancer cells: significantly increased
[5]
  anti-cancer effect when CD8 T cells were depleted by anti-CD8a antibodies: disappeared
  anti-cancer effect when phagocytic cells were depleted by clodronate: disappeared
  anticancer effect when CD4 T cells were deficient: anticancer effect similar to that in normal mice
